These results are taken from patent US8748459B2, “Pyridinoylpiperidines as 5-HT1F agonists” (Eli Lilly and Company, priority 2002, dated 2014).

Each structure is given as a SMILES string.

In this assay the test system is rabbit saphenous vein. Put plainly: rabbit saphenous vein contraction. As to the method: Representative compounds of the present invention were tested in a rabbit saphenous vein contraction assay to measure their ability to mediate vasoconstriction. […] The tips of two 30-gauge stainless steel hypodermic needles bent into an L-shape were slipped into the polyetylene tubing. Vessels were gently pushed from the cannula onto the needles. The needles were then separated so that the lower one was attached with thread to a stationary glass rod and the upper one was tied with thread to the transducer. […] An initial optimum resting force of 1 gm was applied to the saphenous vein. Isometric contractions were recorded as changes in grams of force on a Beckman Dynograph with Statham UC-3 transducers and microscale accessory attachments. Tissues were allowed to equilibrate 1 to 2 hours before exposure to drugs. Cumulative agonist concentration-response curves were generated in tissues and no tissue was used to generate more than two agonist concentration-response curves. […] This vasoconstriction assay measures two important parameters, saphenous vein contraction (EC50) and maximal contraction as a % maximal KCl response (%max KCl).

For orientation: EC50 means the concentration giving half of the maximal effect. Consider `CNS(=O)(=O)Cc1ccc2[nH]cc(CCN(C)C)c2c1` [sumatriptan], for which the “corrected vasoconstriction EC50” value (EC50 divided by %max KCl) was found to be 0.0103 µM. Where the note is “Oryctolagus cuniculus”, this compound registered an EC50 of 0.66 µM.
